Assay [1] can be described thus: Bioassay for Diuretic Effect on Mice. It counts as in vivo, Slc:ddy mice. The following applies: Mouse, oral, Dose (mg) 30, urine collected for 4 hours, percentage to control (100%). As to the method: (§1) I . Test Method: • Experiments with rats and mice were carried out according to Assay Programs #27-104 and #27-106, respectively. The outline is as follows.
Slc:ddy 5-week-old mice (female, about 20g body-weight each) were used for the test. From the morning of the day before the test day, the mice were fasted but water. In the morning of the test day, a sample which was prepared by suspending or dissolving a test compound in 2% gum arabic was orally administered to each at 30 ml/kg. On the other hand, mere by 2% gum arabic was orally administered to the control group at 30 ml/kg. Immediately after the administration, 5 mice employed were put in a plastic cage for the metabolic tests and their urine samples were collected for 4 hours. The cumulative urine volume, urinary sodium (Na^+), and urinary potassium (K^+) were quantitatively determined. II. Test Results
(§2) Results regarding the urine volume are shown by percentages to control (100%). Also, results regarding the urinary sodium (Na^+) and the urinary potassium (K^+) are shown by percentages to control (100%).

The nature of assay [2]: Bioassay for Diuretic Effect on Rats. It is filed as in vivo, SLc:SD rats. The note with it: Rat, oral, percentage to control (100%). As to the method: as §1
SLc:SD 8-week-old rats (male, about 250g body-weight each) were used for the test. A few lumps of sugar in place of ordinary diets were given on the morning of the day before the test day and 5% glucose solution was given orally at a rate of 20 ml/kg in the evening (approximately at 4 p.m.) of the […]. In the morning for the test, a sample which was prepared by suspending or dissolving a test compound in 2X gum arabic was orally administered to each at a dose of 20 ml/kg. On the other hand, mere by 2% gum arabic was orally administered to the control group at 20 ml/kg. Immediately after the administration, the test animals were put in a plastic cage for the metabolic tests and their urine samples were collected for 5 hours. The cumulative urine volume, urinary sodium (Na^+), and urinary potassium (K^+) were quantitatively determined.
as §2

Where [3] appears, read: Dose (mg) 50, urine collected for 5 hours.
Where [4] appears, read: Dose (mg) 10, urine collected for 5 hours.

Structures are written as SMILES.

For the compound `CNC(=S)CC(=O)c1cc2c(c(Cl)c1Cl)OC(C(=O)O)C2` (stereo not drawn) [Example 67, 6,7-dichloro-5-[[N-methyl(thiocarbamoyl)]-acbtyl]-2,3-dihydrobenzofuran-2-carbaxylic acid], in assay [1], the “Urinary K^+ (%)” value was 232^※ %, the “Urinary Na^+ (%)” value was 610^※ % and the “Urine Vol. (%)” value is 192^※ %. Moreover, in assay [2] (setting [3]), the “Urinary K^+ (%)” value is 306^※ %, the “Urinary Na^+ (%)” value is 377^※ % and the “Urine Vol. (%)” value was 148^※ %.

For the compound `CSC(SC)=C(C)C(=O)c1cc2c(c(C)c1Cl)OC(C(=O)O)C2` (stereo not drawn) [Example 14], in assay [1], the “Urinary K^+ (%)” value is 330※ %, the “Urinary Na^+ (%)” value is reported as 743※ % and the “Urine Vol. (%)” value is 296※ %.

Regarding `CSc1[nH]ccc1C(=O)c1cc2c(c(Cl)c1Cl)OC(C(=O)O)C2` (stereo not drawn) [Example 98, 6,7-dichloro-5-[2-(methylthio)pyrrol-3-yl-carbonyl]-2,3-dihydrobenzofuran-2-carboxylic acid], in assay [1], the “Urinary K^+ (%)” value is 292^※ %, the “Urinary Na^+ (%)” value is recorded as 810^※ % and the “Urine Vol. (%)” value was 222^※ %. Moreover, in assay [2] (setting [4]), the “Urinary K^+ (%)” value was 254^※ %, the “Urinary Na^+ (%)” value is 445^※ % and the “Urine Vol. (%)” value is 157^※ %.

As for `O=C(C=C1NC=CS1)c1cc2c(c(Cl)c1Cl)OC(C(=O)O)C2` (stereo not drawn) [Example 70, 6,7-dichloro-5-((4-thiazolin-2-ylidene)acetyl]-2,3-dihydro-benzofuran-2-carboxylic acid], in assay [1], the “Urinary K^+ (%)” value is listed as 178^※ %, the “Urinary Na^+ (%)” value is 410^※ % and the “Urine Vol. (%)” value was 144^※ %. In addition, in assay [2] (setting [3]), the “Urinary K^+ (%)” value is reported as 374^※ %, the “Urinary Na^+ (%)” value is given as 459^※ % and the “Urine Vol. (%)” value was 154^※ %.

For the compound `C=C1CNC(=CC(=O)c2cc3c(c(Cl)c2Cl)OC(C(=O)O)C3)S1` (stereo not drawn) [Example 80], in assay [1], the “Urinary K^+ (%)” value is given as 344^※ %, the “Urinary Na^+ (%)” value is on record as 738^※ % and the “Urine Vol. (%)” value is 264^※ %. For the same compound, in assay [2] (setting [4]), the “Urinary K^+ (%)” value is given as 161^※ %, the “Urinary Na^+ (%)” value is reported as 211^※ % and the “Urine Vol. (%)” value amounted to 101%.

For the compound `CSC(=CC(=O)c1cc2c(c(Cl)c1Cl)OC(C(=O)OCC(=O)O)C2)SC` (stereo not drawn) [Example 17, 6.7-Dichloro-5-[3,3-bis(metbylthic)-2-propenoyl]-2,3-dibydro-1-benzofuran-2-carboxyacetic acid], in assay [1], the “Urinary K^+ (%)” value is reported as 277※ %, the “Urinary Na^+ (%)” value is listed as 970※ % and the “Urine Vol. (%)” value is on record as 216※ %. In addition, in assay [2] (setting [3]), the “Urinary K^+ (%)” value is given as 285※ %, the “Urinary Na^+ (%)” value is recorded as 478※ % and the “Urine Vol. (%)” value is recorded as 144※ %.

As to `CSC(=CC(=O)c1cc2c(c(Cl)c1Cl)OC(C=O)C2)SC` (stereo not drawn) [Example 28], in assay [1], the “Urinary K^+ (%)” value was 260^※ %, the “Urinary Na^+ (%)” value is 905^※ % and the “Urine Vol. (%)” value is listed as 222^※ %.

For `CC(C(=O)c1cc2c(c(Cl)c1Cl)OC(C(=O)O)C2)=C1SCCS1` (stereo not drawn) [Example 3], in assay [1], the “Urinary K^+ (%)” value is reported as 304※ %, the “Urinary Na^+ (%)” value is recorded as 1370※ % and the “Urine Vol. (%)” value is listed as 270※ %. For the same compound, in assay [2] (setting [3]), the “Urinary K^+ (%)” value is listed as 217※ %, the “Urinary Na^+ (%)” value was 291※ % and the “Urine Vol. (%)” value is given as 153※ %.

Regarding `CC(C(=O)c1cc2c(c(Cl)c1Cl)OC(C(=O)O)C2)=C1OCCS1` (stereo not drawn) [Example 21], in assay [1], the “Urinary K^+ (%)” value is 273※ %, the “Urinary Na^+ (%)” value is reported as 704※ % and the “Urine Vol. (%)” value is on record as 155※ %. Also, in assay [2] (setting [3]), the “Urinary K^+ (%)” value is recorded as 178※ %, the “Urinary Na^+ (%)” value is on record as 179※ % and the “Urine Vol. (%)” value is recorded as 104%.

These data come from patent EP0189596A1, “Benzofuran and benzothiophene derivatives” (SHIONOGI & CO., LTD., priority 1984, dated 1986).
